Measurements taken from ChEMBL document CHEMBL4507311, “Data for DCP probe A-1155463” (2021).
pKi: −log10 of the molar value.

Legend:
[1] = molecular target: 5-hydroxytryptamine receptor 3A (Homo sapiens, UniProt P46098); test: GPCRScan assay: inhibition of 5-HT3; design: radioligand conc. used [nm] 1.0 – 2.0, parental cells HEKT
Histamine H3 receptor = Histamine H3 receptor (Homo sapiens, UniProt Q9Y5N1); test: GPCRScan assay: inhibition of H3; design: radioligand conc. used [nm] 0.5 – 1.0, parental cells HEK Flp-In
[2] = system: Tyrosine-protein kinase ABL1 (Homo sapiens), P00519 [H396P]; details: Compound concentration 1000.0 nM
[3] = system: ALK tyrosine kinase receptor (Homo sapiens), Q9UM73 [L1196M]; details: Compound concentration 1000.0 nM
[4] = molecular target: 5'-AMP-activated protein kinase catalytic subunit alpha-1 (Homo sapiens) (UniProt Q13131); details: Compound concentration 1000.0 nM
[5] = molecular target: Mitogen-activated protein kinase kinase kinase 5 (Homo sapiens) (UniProt Q99683); details: Compound concentration 1000.0 nM
[6] = molecular target: Mitogen-activated protein kinase kinase kinase 6 (Homo sapiens) (UniProt O95382); details: Compound concentration 1000.0 nM
[7] = molecular target: Cyclin-dependent kinase 19 (Homo sapiens) (UniProt Q9BWU1); details: Compound concentration 1000.0 nM
[8] = molecular target: Cyclin-dependent kinase 3 (Homo sapiens) (UniProt Q00526); details: Compound concentration 1000.0 nM
[9] = molecular target: Cyclin-dependent kinase-like 3 (Homo sapiens) (UniProt Q8IVW4); details: Compound concentration 1000.0 nM
[10] = molecular target: Tyrosine-protein kinase FRK (Homo sapiens) (UniProt P42685); details: Compound concentration 1000.0 nM
[11] = molecular target: Homeodomain-interacting protein kinase 1 (Homo sapiens) (UniProt Q86Z02); details: Compound concentration 1000.0 nM
[12] = molecular target: Mitogen-activated protein kinase kinase kinase kinase 1 (Homo sapiens) (UniProt Q92918); details: Compound concentration 1000.0 nM
[13] = molecular target: Insulin-like growth factor 1 receptor (Homo sapiens) (UniProt P08069); details: Compound concentration 1000.0 nM
[14] = system: Mast/stem cell growth factor receptor Kit (Homo sapiens), P10721 [L576P]; details: Compound concentration 1000.0 nM
[15] = molecular target: Mitogen-activated protein kinase kinase kinase 1 (Homo sapiens) (UniProt Q13233); details: Compound concentration 1000.0 nM
[16] = molecular target: Hepatocyte growth factor receptor (Homo sapiens) (UniProt P08581); details: Compound concentration 1000.0 nM
[17] = molecular target: Mitogen-activated protein kinase 13 (Homo sapiens) (UniProt O15264); details: Compound concentration 1000.0 nM
[18] = molecular target: Serine/threonine-protein kinase PAK 3 (Homo sapiens) (UniProt O75914); details: Compound concentration 1000.0 nM
[19] = molecular target: 3-phosphoinositide-dependent protein kinase 1 (Homo sapiens) (UniProt O15530); details: Compound concentration 1000.0 nM
[20] = molecular target: Cyclin-dependent kinase 2 homolog (Plasmodium falciparum (isolate 3D7)) (UniProt P61075); details: Compound concentration 1000.0 nM
[21] = system: Phosphatidylinositol 4,5-bisphosphate 3-kinase catalytic subunit alpha isoform (Homo sapiens), P42336 [E545K]; details: Compound concentration 1000.0 nM
[22] = system: Phosphatidylinositol 4,5-bisphosphate 3-kinase catalytic subunit alpha isoform (Homo sapiens), P42336 [M1043I]; details: Compound concentration 1000.0 nM
[23] = molecular target: Phosphatidylinositol 5-phosphate 4-kinase type-2 gamma (Homo sapiens) (UniProt Q8TBX8); details: Compound concentration 1000.0 nM
[24] = molecular target: Serine/threonine-protein kinase N2 (Homo sapiens) (UniProt Q16513); details: Compound concentration 1000.0 nM
[25] = molecular target: Serine/threonine-protein kinase D2 (Homo sapiens) (UniProt Q9BZL6); details: Compound concentration 1000.0 nM
[26] = molecular target: Serine/threonine-protein kinase PRP4 homolog (Homo sapiens) (UniProt Q13523); details: Compound concentration 1000.0 nM
[27] = molecular target: Receptor-interacting serine/threonine-protein kinase 2 (Homo sapiens) (UniProt O43353); details: Compound concentration 1000.0 nM
[28] = molecular target: Dual serine/threonine and tyrosine protein kinase (Homo sapiens) (UniProt Q6XUX3); details: Compound concentration 1000.0 nM
[29] = molecular target: Serine/threonine-protein kinase 33 (Homo sapiens) (UniProt Q9BYT3); details: Compound concentration 1000.0 nM
[30] = molecular target: TRAF2 and NCK-interacting protein kinase (Homo sapiens) (UniProt Q9UKE5); details: Compound concentration 1000.0 nM
[31] = molecular target: NT-3 growth factor receptor (Homo sapiens) (UniProt Q16288); details: Compound concentration 1000.0 nM
[32] = molecular target: Serine/threonine-protein kinase WNK4 (Homo sapiens) (UniProt Q96J92); details: Compound concentration 1000.0 nM
[33] = molecular target: 5-hydroxytryptamine receptor 1E (Homo sapiens) (UniProt P28566); details: Compound concentration 10.0 uM
[34] = molecular target: 5-hydroxytryptamine receptor 2A (Homo sapiens) (UniProt P28223); details: Compound concentration 10.0 uM
[35] = molecular target: Sodium-dependent noradrenaline transporter (Homo sapiens) (UniProt P23975); details: Compound concentration 10.0 uM
[36] = molecular target: Histamine H4 receptor (Homo sapiens) (UniProt Q9H3N8); details: Compound concentration 10.0 uM
[37] = molecular target: T1, Muscarinic acetylcholine receptor M4 (Homo sapiens) (UniProt P08173); details: Compound concentration 10.0 uM
T1 sequence (whole entry): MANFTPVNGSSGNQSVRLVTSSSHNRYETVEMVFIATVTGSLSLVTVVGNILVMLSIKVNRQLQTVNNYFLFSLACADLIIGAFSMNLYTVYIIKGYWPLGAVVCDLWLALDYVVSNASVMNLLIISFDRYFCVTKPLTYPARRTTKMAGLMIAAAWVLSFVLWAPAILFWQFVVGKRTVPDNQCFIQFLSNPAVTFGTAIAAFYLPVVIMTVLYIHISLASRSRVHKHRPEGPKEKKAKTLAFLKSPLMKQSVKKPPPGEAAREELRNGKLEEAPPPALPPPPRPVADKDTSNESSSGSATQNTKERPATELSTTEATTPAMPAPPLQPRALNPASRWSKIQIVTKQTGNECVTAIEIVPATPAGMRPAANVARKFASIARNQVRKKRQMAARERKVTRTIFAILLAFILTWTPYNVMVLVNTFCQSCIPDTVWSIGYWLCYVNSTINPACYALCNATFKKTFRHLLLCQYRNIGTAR

Chain of 5-hydroxytryptamine receptor 3A (P46098 whole entry): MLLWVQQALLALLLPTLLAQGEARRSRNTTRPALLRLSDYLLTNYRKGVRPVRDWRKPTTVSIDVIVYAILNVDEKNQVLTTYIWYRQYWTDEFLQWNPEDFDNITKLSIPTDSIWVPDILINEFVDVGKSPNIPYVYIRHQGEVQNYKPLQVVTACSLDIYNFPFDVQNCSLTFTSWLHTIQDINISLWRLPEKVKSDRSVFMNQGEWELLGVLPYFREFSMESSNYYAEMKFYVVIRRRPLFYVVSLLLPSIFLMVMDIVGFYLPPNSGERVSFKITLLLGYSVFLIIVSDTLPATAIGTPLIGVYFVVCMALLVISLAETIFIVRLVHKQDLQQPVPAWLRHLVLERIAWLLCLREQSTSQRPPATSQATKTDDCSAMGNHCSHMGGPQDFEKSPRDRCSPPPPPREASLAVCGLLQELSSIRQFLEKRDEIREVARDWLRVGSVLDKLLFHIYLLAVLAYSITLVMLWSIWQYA
Chain of Tyrosine-protein kinase FRK (Homo sapiens) (P42685 whole entry): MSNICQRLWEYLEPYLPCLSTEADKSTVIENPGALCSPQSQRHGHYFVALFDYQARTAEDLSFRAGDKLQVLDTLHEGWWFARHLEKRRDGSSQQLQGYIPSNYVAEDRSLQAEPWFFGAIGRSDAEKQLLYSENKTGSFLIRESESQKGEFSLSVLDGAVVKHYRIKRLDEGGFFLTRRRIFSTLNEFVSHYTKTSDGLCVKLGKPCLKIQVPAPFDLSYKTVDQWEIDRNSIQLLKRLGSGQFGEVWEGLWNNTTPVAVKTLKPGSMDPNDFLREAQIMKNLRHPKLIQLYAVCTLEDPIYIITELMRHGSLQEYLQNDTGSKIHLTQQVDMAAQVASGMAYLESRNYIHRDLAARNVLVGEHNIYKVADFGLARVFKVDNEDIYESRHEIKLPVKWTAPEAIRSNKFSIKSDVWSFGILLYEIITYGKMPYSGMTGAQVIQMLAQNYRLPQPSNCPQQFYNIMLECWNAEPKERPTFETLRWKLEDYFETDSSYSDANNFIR
Chain of Dual serine/threonine and tyrosine protein kinase (Homo sapiens) (Q6XUX3 whole entry): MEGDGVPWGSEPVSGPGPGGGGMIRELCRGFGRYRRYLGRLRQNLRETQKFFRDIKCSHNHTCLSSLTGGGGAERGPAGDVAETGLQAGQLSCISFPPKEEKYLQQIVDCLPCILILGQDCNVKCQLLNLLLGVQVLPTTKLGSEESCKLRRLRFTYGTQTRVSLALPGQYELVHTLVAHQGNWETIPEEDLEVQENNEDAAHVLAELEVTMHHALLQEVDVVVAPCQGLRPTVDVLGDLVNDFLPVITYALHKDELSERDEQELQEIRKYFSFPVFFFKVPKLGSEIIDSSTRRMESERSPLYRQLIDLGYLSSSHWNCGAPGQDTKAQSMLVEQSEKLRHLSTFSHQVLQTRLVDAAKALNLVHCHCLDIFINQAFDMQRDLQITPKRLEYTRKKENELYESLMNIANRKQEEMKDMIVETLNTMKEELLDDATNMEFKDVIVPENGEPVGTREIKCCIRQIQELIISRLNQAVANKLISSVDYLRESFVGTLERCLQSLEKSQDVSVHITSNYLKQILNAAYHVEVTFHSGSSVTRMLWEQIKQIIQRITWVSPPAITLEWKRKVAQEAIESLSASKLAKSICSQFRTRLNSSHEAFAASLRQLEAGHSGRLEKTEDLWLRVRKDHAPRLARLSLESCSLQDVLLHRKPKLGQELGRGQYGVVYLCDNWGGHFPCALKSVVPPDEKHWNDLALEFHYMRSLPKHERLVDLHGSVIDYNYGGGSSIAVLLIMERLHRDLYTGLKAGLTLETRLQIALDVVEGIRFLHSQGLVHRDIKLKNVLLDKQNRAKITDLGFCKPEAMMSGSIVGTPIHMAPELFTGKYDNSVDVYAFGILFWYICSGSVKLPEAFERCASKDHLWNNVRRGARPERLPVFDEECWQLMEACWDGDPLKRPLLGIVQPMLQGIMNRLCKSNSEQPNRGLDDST
Chain of 3-phosphoinositide-dependent protein kinase 1 (Homo sapiens) (O15530 whole entry): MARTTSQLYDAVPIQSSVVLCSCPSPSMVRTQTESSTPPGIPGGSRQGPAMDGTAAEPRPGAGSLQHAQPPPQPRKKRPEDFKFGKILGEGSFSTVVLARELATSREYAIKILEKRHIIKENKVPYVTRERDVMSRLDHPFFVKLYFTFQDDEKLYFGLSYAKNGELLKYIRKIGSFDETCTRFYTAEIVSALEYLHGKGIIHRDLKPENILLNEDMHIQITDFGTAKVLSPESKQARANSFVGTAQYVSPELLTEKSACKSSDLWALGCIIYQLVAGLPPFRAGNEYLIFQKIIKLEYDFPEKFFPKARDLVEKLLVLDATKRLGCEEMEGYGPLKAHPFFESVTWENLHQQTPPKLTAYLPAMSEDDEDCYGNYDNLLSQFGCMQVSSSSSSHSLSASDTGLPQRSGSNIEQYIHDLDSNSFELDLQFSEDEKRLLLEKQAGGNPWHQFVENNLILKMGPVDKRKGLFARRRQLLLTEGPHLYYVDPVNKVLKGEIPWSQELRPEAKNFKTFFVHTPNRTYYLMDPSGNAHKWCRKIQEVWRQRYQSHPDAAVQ
Chain of Serine/threonine-protein kinase D2 (Homo sapiens) (Q9BZL6 whole entry): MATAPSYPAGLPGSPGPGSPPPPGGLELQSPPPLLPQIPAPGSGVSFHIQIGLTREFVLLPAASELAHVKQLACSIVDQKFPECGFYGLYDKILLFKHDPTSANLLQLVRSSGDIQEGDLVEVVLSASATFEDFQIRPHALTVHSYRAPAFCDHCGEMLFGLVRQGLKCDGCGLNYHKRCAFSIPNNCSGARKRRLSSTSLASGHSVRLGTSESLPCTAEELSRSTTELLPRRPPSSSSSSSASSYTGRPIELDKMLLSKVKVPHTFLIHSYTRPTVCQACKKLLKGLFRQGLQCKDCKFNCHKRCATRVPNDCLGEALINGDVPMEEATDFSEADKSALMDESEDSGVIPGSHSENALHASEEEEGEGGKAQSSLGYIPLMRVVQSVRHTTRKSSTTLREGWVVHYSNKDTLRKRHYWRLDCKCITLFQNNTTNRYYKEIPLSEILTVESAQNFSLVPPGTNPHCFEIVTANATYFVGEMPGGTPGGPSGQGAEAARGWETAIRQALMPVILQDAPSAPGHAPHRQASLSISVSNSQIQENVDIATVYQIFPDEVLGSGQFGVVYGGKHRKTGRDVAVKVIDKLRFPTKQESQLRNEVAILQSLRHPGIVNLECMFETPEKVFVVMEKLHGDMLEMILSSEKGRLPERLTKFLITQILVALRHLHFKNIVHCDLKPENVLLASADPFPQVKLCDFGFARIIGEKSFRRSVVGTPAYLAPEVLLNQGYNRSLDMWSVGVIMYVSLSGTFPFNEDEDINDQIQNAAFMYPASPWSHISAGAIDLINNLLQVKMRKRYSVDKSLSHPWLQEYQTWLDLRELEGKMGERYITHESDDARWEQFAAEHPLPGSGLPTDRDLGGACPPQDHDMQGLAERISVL
Chain of Histamine H4 receptor (Homo sapiens) (Q9H3N8 whole entry): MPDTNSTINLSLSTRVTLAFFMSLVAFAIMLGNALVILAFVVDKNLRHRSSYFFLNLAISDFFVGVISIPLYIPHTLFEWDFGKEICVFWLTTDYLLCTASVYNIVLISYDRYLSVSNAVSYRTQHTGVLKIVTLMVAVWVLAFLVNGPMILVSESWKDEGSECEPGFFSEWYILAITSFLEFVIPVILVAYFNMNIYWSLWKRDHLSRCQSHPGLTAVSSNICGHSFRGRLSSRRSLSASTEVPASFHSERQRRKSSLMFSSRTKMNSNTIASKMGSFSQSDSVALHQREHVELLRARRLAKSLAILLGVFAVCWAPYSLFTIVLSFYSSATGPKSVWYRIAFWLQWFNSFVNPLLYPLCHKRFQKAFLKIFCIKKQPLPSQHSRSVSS
Chain of Sodium-dependent noradrenaline transporter (Homo sapiens) (P23975 whole entry): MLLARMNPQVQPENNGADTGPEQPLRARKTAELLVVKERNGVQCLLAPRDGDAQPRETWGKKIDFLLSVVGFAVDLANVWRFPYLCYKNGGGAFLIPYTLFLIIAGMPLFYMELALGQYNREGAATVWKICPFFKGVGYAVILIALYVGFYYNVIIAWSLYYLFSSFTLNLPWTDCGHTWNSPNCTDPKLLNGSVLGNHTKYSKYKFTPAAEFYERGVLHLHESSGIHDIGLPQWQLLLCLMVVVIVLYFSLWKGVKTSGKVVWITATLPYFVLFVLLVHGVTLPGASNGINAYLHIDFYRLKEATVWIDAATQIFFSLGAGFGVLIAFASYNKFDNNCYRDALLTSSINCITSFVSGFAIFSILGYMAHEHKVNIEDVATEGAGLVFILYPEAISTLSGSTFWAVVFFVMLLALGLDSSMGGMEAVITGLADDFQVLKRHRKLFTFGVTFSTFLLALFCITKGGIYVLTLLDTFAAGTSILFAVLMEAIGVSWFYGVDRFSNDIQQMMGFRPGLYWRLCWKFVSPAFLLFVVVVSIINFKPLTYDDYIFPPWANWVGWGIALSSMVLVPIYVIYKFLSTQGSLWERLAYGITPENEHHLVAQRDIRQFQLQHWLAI
Chain of Cyclin-dependent kinase 2 homolog (Plasmodium falciparum (isolate 3D7)) (P61075 whole entry, canonical isoform): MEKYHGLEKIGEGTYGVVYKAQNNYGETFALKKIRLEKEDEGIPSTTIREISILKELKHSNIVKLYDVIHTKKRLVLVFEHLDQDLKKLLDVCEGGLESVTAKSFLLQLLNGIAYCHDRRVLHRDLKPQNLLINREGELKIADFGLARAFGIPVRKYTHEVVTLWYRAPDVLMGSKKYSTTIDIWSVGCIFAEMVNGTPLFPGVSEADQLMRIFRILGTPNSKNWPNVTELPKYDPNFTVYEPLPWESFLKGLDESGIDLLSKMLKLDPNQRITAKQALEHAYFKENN
Chain of Mitogen-activated protein kinase 13 (Homo sapiens) (O15264 whole entry): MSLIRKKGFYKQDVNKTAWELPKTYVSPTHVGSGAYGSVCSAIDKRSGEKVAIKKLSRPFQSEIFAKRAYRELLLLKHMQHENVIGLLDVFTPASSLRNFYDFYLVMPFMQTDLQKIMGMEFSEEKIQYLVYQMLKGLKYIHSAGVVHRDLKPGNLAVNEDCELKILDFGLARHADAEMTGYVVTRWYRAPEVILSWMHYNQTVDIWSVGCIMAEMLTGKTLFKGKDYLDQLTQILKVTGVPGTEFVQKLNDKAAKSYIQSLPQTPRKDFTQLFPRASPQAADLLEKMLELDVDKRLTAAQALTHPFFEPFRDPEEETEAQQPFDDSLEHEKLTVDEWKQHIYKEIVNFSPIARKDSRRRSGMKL

CN(C)CC#Cc1ccc(OCCCc2sc(N3CCc4cccc(C(=O)Nc5nc6ccccc6s5)c4C3)nc2C(=O)O)c(F)c1 [A-1155463]
pKi ([1]; read-out: Ki): 5.94
Ki ([1]; read-out: pKi (converted)): 1070 nM
pKi (Histamine H3 receptor): 5.74
residual activity [2]: 99%
residual activity [3]: 100%
residual activity [4]: 100%
residual activity [5]: 94%
residual activity [6]: 82%
residual activity [7]: 95%
residual activity [8]: 68%
residual activity [9]: 100%
residual activity [10]: 96%
residual activity [11]: 75%
residual activity [12]: 93%
residual activity [13]: 98%
residual activity [14]: 95%
residual activity [15]: 100%
residual activity [16]: 61%
residual activity [17]: 97%
residual activity [18]: 97%
residual activity [19]: 100%
residual activity [20]: 100%
residual activity [21]: 95%
residual activity [22]: 96%
residual activity [23]: 100%
residual activity [24]: 100%
residual activity [25]: 84%
residual activity [26]: 100%
residual activity [27]: 100%
residual activity [28]: 100%
residual activity [29]: 100%
residual activity [30]: 83%
residual activity [31]: 100%
residual activity [32]: 81%
inhibition [33]: -4.32%
inhibition [34]: 40.1%
inhibition [35]: 42.9%
inhibition [36]: 6.5%
inhibition [37]: -3.11%
